Two molecules from patent US8841349B2, “Stabilize compositions based on monoalkyl glycerol ethers and aromatic alcohols” (Air Liquide Sante (International), priority 2003, dated 2014) can be followed below.

The experiment concerns mixed suspension (Group 5) of the four test microbe groups. Kind of experiment: Koko test (pack preservation, repeated inoculation challenge) of aqueous working solutions in Ringer's solution. It counts as cell-based. To be noted: for Koko results: microbial growth of streaks, inoculation cycle 1: inoculation cycle 1; Ringer's solution as product; use concentration 0.5% for 1), 0.6% for 2), 2.0% for 3) and 4); for Koko results: microbial growth of streaks, inoculation cycle 2: inoculation cycle 2; Ringer's solution as product; use concentration 0.5% for 1), 0.6% for 2), 2.0% for 3) and 4); for Koko results: microbial growth of streaks, inoculation cycle 3: inoculation cycle 3; Ringer's solution as product; use concentration 0.5% for 1), 0.6% for 2), 2.0% for 3) and 4); for Koko results: microbial growth of streaks, inoculation cycle 4: inoculation cycle 4; Ringer's solution as product; use concentration 0.5% for 1), 0.6% for 2), 2.0% for 3) and 4); for Koko results: microbial growth of streaks, inoculation cycle 5: inoculation cycle 5; Ringer's solution as product; use concentration 0.5% for 1), 0.6% for 2), 2.0% for 3) and 4); for Koko results: microbial growth of streaks, inoculation cycle 6: inoculation cycle 6; Ringer's solution as product; use concentration 0.5% for 1), 0.6% for 2), 2.0% for 3) and 4). The procedure: Unless expressly stated otherwise, all of the percentages are percentages by weight. Aqueous working solutions were investigated using Ringer's solution as product in the Koko test.
Using the described method, the effectiveness of chemical preservatives (stabilizer compositions) is tested with regard to the pack preservation for cosmetic formulations. For this purpose, the compositions to be investigated are added in varying concentrations to the unstabilized samples in various experimental batches. A continuous microbial burden is achieved by periodically inoculating the experimental batches. In parallel to the inoculation, streaks of each of the individual batches are in each case made immediately beforehand. Assessment is made by reference to the microbial growth of the streaks.
• CSA (casein peptone soya flour peptone agar) • SA (Sabouraud dextrose agar) • SA slant tube • CSA+TLSH (No. 4) • SA-TLSH (No. 10) • NaCl (physiological sodium chloride solution, […]) • TLSH (disinhibiting medium for bacteria=Tween 80+lecithin+saponin+histidine)
The test microbe used was the mixed suspension (Group 5) of the following four test microbe groups.
Cultivation of the Test Microbes • Bacteria: streaking using a sterile glass rod on CS agar • Yeasts: streaking using a sterile glass rod on SA agar • Fungi: Aspergillus niger is transferred to 4 SA slant tubes • Penicillium funiculosum is transferred to SA agar plates
All of the test microbes are incubated for one week at 25° C.±2° C. The test microbes are replaced at intervals of 3 to 4 months.
The bacteria are rinsed off with 5 ml of NaCl solution in each case, filtered through a glass funnel containing glass wool into a 100 ml measuring cylinder and made up to 100 ml with NaCl. The bacterial suspensions have a titre of about 10^9 CFU/ml.
Three Aspergillus niger slant tubes are each shaken with 3 ml of NaCl solution on a Heldolph stirrer and introduced through a glass funnel containing glass wool. The yeast Candida albicans is rinsed off with 5 ml of NaCl and likewise poured through the glass funnel. 5 ml of a Penicillium funiculosum suspension are added to this mixture and made up to 100 ml with NaCl. The fungal suspension has a titre of about 10^5-9 CFU/ml.
The inoculation solution actually used is prepared as described above (Groups 1 to 4). After rinsing off, these are mixed and then made up to 100 ml with NaCl.
The microbial suspension was transferred to sterile glass-stoppered bottles containing glass beads and shaken for 5 min at a shaking frequency (to-and-fro movement) of 200 units/min. The microbial content of the mixed suspension is 10^9 CFU/ml. The suspension should be used on the day of preparation, but can also be used after 24 hours upon storage in a refrigerator.
In separate batches, 25 g of the cosmetic to be tested are mixed in each case with the compositions to be investigated in varying concentrations. The growth control used in each case is an unstabilized product sample. The test batches are streaked onto CSA/TLSH and SA/TLSH once per week following thorough stirring using a sterile glass rod, the first streaking being carried out directly prior to reinoculation. All of the samples are inoculated with 0.1 ml of the respective microbial suspension and thoroughly stirred.
The microbial growth of the streaks is assessed after incubation for three days at 25° C.±2° C. To be on the safe side, negative streaks are observed for a further two days and reassessed. The stabilizing action of the individual product concentration is assessed in a semiqualitative method by means of the growth of the individual streaks.
The test is usually carried out over six inoculation cycles and terminated after massive growth on two occasions.
A composition is considered good if it exists under the laboratory conditions given above for a period of six weeks without microbial attack of the sample batches, i.e. even after the sixth inoculation, no microbial growth can be detected.

On to `O=C([O-])CNCO.[Na+]` [1), sodium hydroxymethyl-glycinate], for which the “Koko results: microbial growth of streaks, inoculation cycle 1” value is “+Y”; the “Koko results: microbial growth of streaks, inoculation cycle 2” value was “+Y”; the “Koko results: microbial growth of streaks, inoculation cycle 3” value is listed as “+Y”; the “Koko results: microbial growth of streaks, inoculation cycle 4” value is given as “+Y”. Besides, the “Koko results: microbial growth of streaks, inoculation cycle 5” value is recorded as “+Y” and the “Koko results: microbial growth of streaks, inoculation cycle 6” value is listed as “+Y”.

As to `CC1(C)C(=O)N(CO)C(=O)N1CO` [2), dimethyldimethylolhydantoin], the “Koko results: microbial growth of streaks, inoculation cycle 1” value is “+B”; the “Koko results: microbial growth of streaks, inoculation cycle 2” value is on record as “++B”; the “Koko results: microbial growth of streaks, inoculation cycle 3” value is reported as “++B”; the “Koko results: microbial growth of streaks, inoculation cycle 4” value was “++B”. The “Koko results: microbial growth of streaks, inoculation cycle 5” value is “++B” and the “Koko results: microbial growth of streaks, inoculation cycle 6” value is on record as “++B”.
